# Results as given in patent publication US12410179B2, “Modulators of TNF alpha activity and uses thereof” (RayThera, Inc., priority 2023, dated 2025).
# Target: TNFα (Homo sapiens, UniProt P01375)
# Experiment: HEK-Blue hTNFα reporter assay
# Type: cell-based
# Set-up: purchased R&D biosystem (R&D Systems) 210-TA-020/CF
# Settings: HEK-Blue hTNFα reporter cells, SEAP readout; read-out: IC50 Range
# Procedure, shortened: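 IC50 from 4-parameter regression of % inhibition, with OD620 of secreted SEAP (QUANTI-Blue, 1 h) referenced to cells with and without hTNFα. HEK-Blue TNFα reporter cells were exposed 24 h to compound premixed 1 h with hTNFα ([…]).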
# Chain of TNFα (P01375 77-233 limits assumed): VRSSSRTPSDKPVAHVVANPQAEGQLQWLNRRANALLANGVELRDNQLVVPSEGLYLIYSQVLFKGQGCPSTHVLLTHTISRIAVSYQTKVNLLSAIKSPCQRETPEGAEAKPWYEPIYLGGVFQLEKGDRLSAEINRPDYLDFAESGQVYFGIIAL
row,SMILES,IC50
1,CN1C(=O)c2cccc(OC(F)F)c2[C@H]2C[C@@H]1c1nn3cc(F)c(-c4cnc([C@@](C)(O)CO)nc4)cc3c12 [Example 115],< 25 nM
2,CN1C(=O)c2cccc(OC(F)F)c2[C@H]2C[C@@H]1c1nn3cc(F)c(-c4cnc([C@@](C)(O)CC#N)nc4)cc3c12 [Example 116],< 25 nM
3,CN1C(=O)c2cccc(OC(F)F)c2[C@H]2C[C@@H]1c1nn3cc(F)c(-c4cnc([C@](C)(O)CC#N)nc4)cc3c12 [Example 117],< 25 nM
4,CN1C(=O)c2cccc(OC(F)F)c2[C@H]2C[C@@H]1c1nn3cc(F)c(-c4cnc([C@]5(O)C[C@@H](O)C5)nc4)cc3c12 [Example 125],< 25 nM
5,CP(C)(=O)c1ccc(-c2ccn3nc4c(c3c2)[C@@H]2C[C@H]4NC(=O)c3cccc(OC(F)F)c32)cc1F [Example 127],< 25 nM
6,CN1C(=O)c2cccc(OC(F)F)c2[C@H]2C[C@@H]1c1nn3cc(F)c(-c4cnc(P(C)(C)=O)cn4)cc3c12 [Example 128],< 25 nM
7,CN1C(=O)c2cccc(OC(F)F)c2[C@H]2C[C@@H]1c1nn3ccc(-c4ncc([C@@H](O)[C@@H]5CCO5)cn4)cc3c12 [Example 129],< 25 nM
8,CN1C(=O)c2cccc(OC(F)F)c2[C@H]2C[C@@H]1c1nn3ccc(-c4ncc([C@@H](O)[C@H]5CCO5)cn4)cc3c12 [Example 130],< 25 nM
9,CN1C(=O)c2cccc(OC(F)F)c2[C@H]2C[C@@H]1c1nn3ccc(-c4ncc([C@H](O)[C@@H]5CCO5)cn4)cc3c12 [Example 131],< 25 nM
10,CN1C(=O)c2cccc(OC(F)F)c2[C@H]2C[C@@H]1c1nn3ccc(-c4ncc([C@H](O)[C@H]5CCO5)cn4)cc3c12 [Example 132],< 25 nM
11,CN1C(=O)c2cccc(OC(F)F)c2[C@H]2C[C@@H]1c1nn3ccc(-c4cnc([C@@H](O)C5COC5)nc4)cc3c12 [Example 136],< 25 nM
12,O=C1N[C@@H]2C[C@H](c3c(OC(F)F)cccc31)c1c2nn2ccc(-c3cnc(C4(O)CCC4)nc3)cc12 [Example 140],< 25 nM
13,CN1C(=O)c2cccc(OC(F)F)c2[C@H]2C[C@@H]1c1nn3ccc(-c4ncc([C@]5(O)C[C@@](C)(O)C5)cn4)cc3c12 [Example 142],< 25 nM
14,CN1C(=O)c2cccc(OC(F)F)c2[C@H]2C[C@@H]1c1nn3ccc(-c4cnc(N5CCNCC5)nc4)cc3c12 [Example 143],< 25 nM
15,CN1C(=O)c2cccc(OC(F)F)c2[C@H]2C[C@@H]1c1nn3cnc(-c4ccc(P(C)(C)=O)c(F)c4)cc3c12 [Example 144],< 25 nM
16,CN1C(=O)c2cccc(OC(F)F)c2[C@H]2C[C@@H]1c1nn3ccc(-c4cnc(N5CCN(CCO)CC5)nc4)cc3c12 [Example 145],< 25 nM
17,CN1C(=O)c2cccc(OC(F)F)c2[C@H]2C[C@@H]1c1nn3cnc(-c4cnc(C5(N)CC(F)(F)C5)nc4)cc3c12 [Example 146],< 25 nM
18,Cc1nc([C@]2(O)C[C@@](C)(O)C2)ncc1-c1ccn2nc3c(c2c1)[C@@H]1C[C@H]3N(C)C(=O)c2cccc(OC(F)F)c21 [Example 147],< 25 nM
19,CC(=O)N1CCN(c2ncc(-c3ccn4nc5c(c4c3)[C@@H]3C[C@H]5N(C)C(=O)c4cccc(OC(F)F)c43)cn2)CC1 [Example 148],< 25 nM
20,O=C1N[C@@H]2C[C@H](c3c(OC(F)F)cccc31)c1c2nn2ccc(-c3cnc(C4(O)CC(F)(F)C4)nc3)cc12 [Example 150],< 25 nM

row,SMILES,IC50
1,C[C@@](O)(c1ncc(-c2ccn3nc4c(c3c2)[C@@H]2C[C@H]4NC(=O)c3cccc(OC(F)F)c32)cn1)C(F)F [Example 151],< 25 nM
2,C[C@](O)(c1ncc(-c2ccn3nc4c(c3c2)[C@@H]2C[C@H]4NC(=O)c3cccc(OC(F)F)c32)cn1)C(F)F [Example 152],< 25 nM
3,CN1C(=O)c2cccc(OC(F)F)c2[C@H]2C[C@@H]1c1nn3ccc(-c4ccc([C@]5(N)C[C@@](C)(C(=O)O)C5)c(F)c4)cc3c12 [Example 154],< 25 nM
4,CN1CCN(c2ncc(-c3ccn4nc5c(c4c3)[C@@H]3C[C@H]5N(C)C(=O)c4cccc(OC(F)F)c43)cn2)CC1 [Example 155],< 25 nM
5,CN1C(=O)c2cccc(OC(F)F)c2[C@H]2C[C@@H]1c1nn3ccc(-c4cnc(N5CCC(O)CC5)nc4)cc3c12 [Example 156],< 25 nM
6,CN1C(=O)c2cccc(OC(F)F)c2[C@H]2C[C@@H]1c1nn3ccc(-c4cnc(N5CCOCC5)nc4)cc3c12 [Example 158],< 25 nM
7,CN1C(=O)c2ccnc(OC(F)F)c2[C@H]2C[C@@H]1c1nn3cc(F)c(-c4ccc(P(C)(C)=O)c(F)c4)cc3c12 [Example 159],< 25 nM
8,CN1C(=O)c2cccc(OC(F)F)c2[C@H]2C[C@@H]1c1nn3ccc(-c4cnc([C@]5(O)C[C@@](C)(C(N)=O)C5)nc4)cc3c12 [Example 160],< 25 nM
9,CN1C(=O)c2cccc(OC(F)F)c2[C@H]2C[C@@H]1c1nn3cc(F)c(-c4ccc(P5(=O)CCOCC5)nc4)cc3c12 [Example 161],< 25 nM
10,O=C1N[C@@H]2C[C@H](c3c(OC(F)F)cccc31)c1c2nn2ccc(-c3cnc(N4CCOCC4)nc3)cc12 [Example 162],< 25 nM
11,C[C@@](O)(CC#N)c1ncc(-c2ccn3nc4c(c3c2)[C@@H]2C[C@H]4NC(=O)c3cccc(OC(F)F)c32)cn1 [Example 163],< 25 nM
12,C[C@](O)(CC#N)c1ncc(-c2ccn3nc4c(c3c2)[C@@H]2C[C@H]4NC(=O)c3cccc(OC(F)F)c32)cn1 [Example 164],< 25 nM
13,CN1C(=O)c2cccc(OC(F)F)c2[C@H]2C[C@@H]1c1nn3cc(F)c(-c4ncc(C5(O)COC5)cn4)cc3c12 [Example 166],< 25 nM
14,CN1C(=O)c2cccc(OC(F)F)c2[C@H]2C[C@@H]1c1nn3ccc(-c4cnc([C@]5(N)C[C@](C)(C#N)C5)nc4)cc3c12 [Example 167],< 25 nM
15,CN1C(=O)c2cccc(OC(F)F)c2[C@H]2C[C@@H]1c1nn3ccc(-c4cnc([C@]5(N)C[C@@H](O)C5)c(F)c4)cc3c12 [Example 168],< 25 nM
16,CN1C(=O)c2cccc(OC(F)F)c2[C@H]2C[C@@H]1c1nn3ccc(-c4cnc([C@]5(N)C[C@H](O)C5)c(F)c4)cc3c12 [Example 169],< 25 nM
17,C[C@]1(C#N)C[C@](N)(c2ncc(-c3ccn4nc5c(c4n3)[C@@H]3C[C@H]5NC(=O)c4cccc(OC(F)F)c43)cc2F)C1 [Example 173],< 25 nM
18,C[C@]1(C#N)C[C@](N)(c2ncc(-c3nc4c5c(nn4cc3F)[C@H]3C[C@@H]5c4c(OC(F)F)cccc4C(=O)N3)cc2F)C1 [Example 174],< 25 nM
19,[2H]C([2H])([2H])N1C(=O)c2cccc(OC(F)F)c2[C@H]2C[C@@H]1c1nn3cnc(-c4cnc([C@]5(N)C[C@@](C)(C#N)C5)c(F)c4)cc3c12 [Example 175],< 25 nM
20,[2H]C([2H])([2H])N1C(=O)c2cccc(OC(F)F)c2[C@H]2C[C@@H]1c1nn3ccc(-c4cnc([C@]5(N)C[C@@H](C#N)C5)nc4)nc3c12 [Example 176],< 25 nM

# Other lines, results leading:
row,IC50,SMILES
1,< 25 nM,C[C@H](O)[C@@H](O)c1ncc(-c2ccn3nc4c(c3c2)[C@@H]2C[C@H]4N(C)C(=O)c3cccc(OC(F)F)c32)cn1 [Example 118]
2,< 25 nM,C[C@@H](O)[C@H](O)c1ncc(-c2ccn3nc4c(c3c2)[C@@H]2C[C@H]4N(C)C(=O)c3cccc(OC(F)F)c32)cn1 [Example 119]
3,< 25 nM,CN1C(=O)c2cccc(OC(F)F)c2[C@H]2C[C@@H]1c1nn3cc(F)c(-c4ccc([S@@](=N)(=O)C5CC5)nc4)cc3c12 [Example 120]
4,< 25 nM,CN1C(=O)c2cccc(OC(F)F)c2[C@H]2C[C@@H]1c1nn3ccc(-c4ccc(P(C)(C)=O)cn4)cc3c12 [Example 122]
5,< 25 nM,CN1C(=O)c2cccc(OC(F)F)c2[C@H]2C[C@@H]1c1nn3ccc(-c4ccc(P(C)(C)=O)cc4)cc3c12 [Example 123]
6,< 25 nM,[2H]C([2H])([2H])N1C(=O)c2cccc(OC(F)F)c2[C@H]2C[C@@H]1c1nn3ccc(-c4ccc(S(=N)(=O)CC)nc4)cc3c12 (stereo partly shown) [Example 124]
7,< 25 nM,CN1C(=O)c2cccc(OC(F)F)c2[C@H]2C[C@@H]1c1nn3ccc(-c4cnc(S(=N)(=O)C5CC5)cn4)cc3c12 (stereo partly shown) [Example 126]
8,< 25 nM,CN1C(=O)c2cccc(OC(F)F)c2[C@H]2C[C@@H]1c1nn3ccc(-c4cnc([C@H](O)C(C)(C)O)nc4)cc3c12 [Example 133]
9,< 25 nM,CN1C(=O)c2cccc(OC(F)F)c2[C@H]2C[C@@H]1c1nn3ccc(-c4cnc([C@@H](O)C(C)(C)O)nc4)cc3c12 [Example 134]
10,< 25 nM,C[C@H](O)[C@H](O)c1ncc(-c2ccn3nc4c(c3c2)[C@@H]2C[C@H]4N(C)C(=O)c3cccc(OC(F)F)c32)cn1 [Example 135]
11,< 25 nM,CN1C(=O)c2cccc(OC(F)F)c2[C@H]2C[C@@H]1c1nn3ccc(-c4cnc([C@H](O)C5COC5)nc4)cc3c12 [Example 137]
12,< 25 nM,CN1C(=O)c2cccc(OC(F)F)c2[C@H]2C[C@@H]1c1nn3ccc(-c4ncc(P(C)(C)=O)cn4)cc3c12 [Example 138]
13,< 25 nM,CN1C(=O)c2cccc(OC(F)F)c2[C@H]2C[C@@H]1c1nn3ccc(-c4cnc([C@]5(O)C[C@](C)(O)C5)nc4)cc3c12 [Example 139]
14,< 25 nM,[2H]C([2H])([2H])N1C(=O)c2cccc(OC(F)F)c2[C@H]2C[C@@H]1c1nn3ccc(-c4cnc(C5(O)COC5)nc4)cc3c12 [Example 153]
15,< 25 nM,CN1C(=O)c2cccc(OC(F)F)c2[C@H]2C[C@@H]1c1nn3ccc(-c4ccc([C@]5(N)C[C@@](C)(C(=O)O)C5)nc4)cc3c12 [Example 165]
16,< 25 nM,[2H]C([2H])([2H])N1C(=O)c2cccc(OC(F)F)c2[C@H]2C[C@@H]1c1nn3ccc(-c4cnc([C@]5(N)C[C@@H](C#N)C5)nc4)cc3c12 [Example 170]
17,25 to 100 nM,CN1C(=O)c2cccc(OC(F)F)c2[C@H]2C[C@@H]1c1nn3ccc(-c4cnc([C@@H](O)CN5CCC5)nc4)cc3c12 [Example 171]
18,100 to 1000 nM,CN1C(=O)c2cccc(OC(F)F)c2[C@H]2C[C@@H]1c1nn3ccc(-c4cnc([C@H](O)CN5CCC5)nc4)cc3c12 [Example 172]
